Data on 33 molecules can be found in US10385022B2, “3-amino-pyridines as GPBAR1 agonists” (HOFFMANN-LA ROCHE INC., priority 2011, dated 2019).

By EC50 is commonly meant the concentration that produces a half-maximal response. A lower EC50 goes with an effect from little substance.

human GPBAR1 receptor, sequence (Q8TDU6 whole entry): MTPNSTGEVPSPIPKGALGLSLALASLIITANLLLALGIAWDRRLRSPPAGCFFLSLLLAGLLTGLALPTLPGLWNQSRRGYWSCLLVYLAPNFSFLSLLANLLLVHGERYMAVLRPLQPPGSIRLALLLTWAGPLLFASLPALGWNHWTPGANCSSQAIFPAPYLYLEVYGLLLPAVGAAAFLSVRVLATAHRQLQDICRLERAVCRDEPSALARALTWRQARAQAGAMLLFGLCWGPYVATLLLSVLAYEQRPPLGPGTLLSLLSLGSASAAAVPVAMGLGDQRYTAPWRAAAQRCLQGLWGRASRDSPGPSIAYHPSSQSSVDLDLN

The target of this test is human GPBAR1 receptor (Homo sapiens (Human), UniProt Q8TDU6). The test is described as follows: functional cAMP assay in CHO-dhfr(minus) cells expressing human GPBAR1 receptors. It is filed as cell-based. The note with it: CHO-dhfr(minus) cells expressing human GPBAR1, 30 min at 30° C. The protocol:
The final clone was verified by DNA sequence analysis. The plasmid was transfected into CHO cells deficient in dihydrofolate reductase activity (CHO-dhfr-) using Lipofectamine plus (Invitrogen). Clones were isolated in limited dilution conditions and identified by activities in the cAMP assay using lithocholic acid as agonist.
EC50 values were determined using Activity Base analysis (ID Business Solution, Limited). […] Specificity for GPBAR1 was tested in non-transfected CHO cells in the same assay as above.
(In general: Changes in cAMP serve as a functional read-out for many G protein-coupled receptors.)
`Cc1cc(-c2ccccc2C)c(N(C)C(=O)c2cc(C(F)(F)F)cc(C(F)(F)F)c2)cn1` [Example 127, N-Methyl-N-(6-methyl-4-o-tolyl-pyridin-3-yl)-3,5-bis-trifluoromethyl-benzamide] had a concentration giving a half-maximal response (EC50) of 75 nM.

The molecule `COc1cc(F)c(F)cc1-c1ccncc1N(CC(F)(F)F)C(=O)c1cc(F)cc(C(F)(F)F)c1` [Example 132, N-[4-(4,5-Difluoro-2-methoxy-phenyl)-pyridin-3-yl]-3-fluoro-N-(2,2,2-trifluoro-ethyl)-5-trifluoromethyl-benzamide] displayed a half-maximal effective concentration (EC50) of 1330 nM.

As for `COc1cc(F)ccc1-c1ccncc1N(C)C(=O)c1cc(CCC(N)=O)cc(C(F)(F)F)c1` [Example 281, 3-(2-Carbamoyl-ethyl)-N-[4-(4-fluoro-2-methoxy-phenyl)-pyridin-3-yl]-N-methyl-5-trifluoromethyl-benzamide], the EC50 was found to be 574 nM. This EC50 lies about 2.3-fold lower than the previous one.

For `COc1cc(F)ccc1-c1ccncc1N(C)C(=O)c1cc(C(F)(F)F)cc(S(C)(=O)=O)c1` [Example 138, N-[4-(4-Fluoro-2-methoxy-phenyl)-pyridin-3-yl]-3-methanesulfonyl-N-methyl-5-trifluoromethyl-benzamide], the EC50 stood at 42 nM.

On to `Cc1ccccc1-c1ccncc1N(C)C(=O)c1cc(Cl)cc(C(F)(F)F)c1` [Example 109, 3-Chloro-N-methyl-N-(4-o-tolyl-pyridin-3-yl)-5-trifluoromethyl-benzamide], for which the EC50 was 22 nM.

The molecule `COc1cc(F)ccc1-c1cc(C)ncc1N(C)C(=O)c1cc(C(F)(F)F)cc(S(=O)(=O)N2CCOCC2)c1` [Example 302, N-[4-(4-Fluoro-2-methoxy-phenyl)-6-methyl-pyridin-3-yl]-N-methyl-3-(morpholine-4-sulfonyl)-5-trifluoromethyl-benzamide] registered an EC50 of over 10000 nM.

As for `COc1cc(F)ccc1-c1ccncc1N(CC1CCCCO1)C(=O)c1cc(C(F)(F)F)cc(S(C)(=O)=O)c1` (single isomer, unassigned; (-)) [Example 290, (−)-N-[4-(4-Fluoro-2-methoxy-phenyl)-pyridin-3-yl]-3-methanesulfonyl-N-[1-(tetrahydro-pyran-2-yl)methyl]-5-trifluoromethyl-benzamide], it took 1740 nM to reach a half-maximal effect (EC50).

For `Cc1ccccc1-c1ccncc1N(C)C(=O)c1ccc(C(F)(F)F)c(Cl)c1` [Example 97, 3-Chloro-N-methyl-N-(4-o-tolyl-pyridin-3-yl)-4-trifluoromethyl-benzamide], a half-maximal effect (EC50) was put at 721 nM.

As to `CN(C(=O)c1cc(C(F)(F)F)cc(C(F)(F)F)c1)c1cnccc1-c1cc(F)cnc1Cl` [Example 55, N-(2-Chloro-5-fluoro-[3,4′]bipyridinyl-3′-yl)-N-methyl-3,5-bis-trifluoromethyl-benzamide], the half-maximal effective concentration (EC50) came to 435 nM.

`COc1cc(F)ccc1-c1ccncc1N(C)C(=O)c1cc(C(F)(F)F)cc(S(=O)(=O)C2CN(S(C)(=O)=O)C2)c1` [Example 282, N-[4-(4-Fluoro-2-methoxy-phenyl)-pyridin-3-yl]-3-(1-methanesulfonyl-azetidine-3-sulfonyl)-N-methyl-5-trifluoromethyl-benzamide]: the EC50 is 69 nM. Compared with the last molecule, the EC50 is about 6.3-fold lower.

Regarding `COc1cc(F)c(F)cc1-c1ccncc1N(C)C(=O)c1cc(C(F)(F)F)cc(C(F)(F)F)c1` [Example 39, N-[4-(4,5-Difluoro-2-methoxy-phenyl)-pyridin-3-yl]-N-methyl-3,5-bis-trifluoromethyl-benzamide], the EC50 was 38 nM.

`COc1cc(F)ccc1-c1ccncc1N(CC1CCCCO1)C(=O)c1cc(C(F)(F)F)cc(S(C)(=O)=O)c1` (single isomer, unassigned; (+)) [Example 291, (+)-N-[4-(4-Fluoro-2-methoxy-phenyl)-pyridin-3-yl]-3-methanesulfonyl-N-[1-(tetrahydro-pyran-2-yl)methyl]-5-trifluoromethyl-benzamide]: a half-maximal effect (EC50) was put at 2840 nM. Compared with the last molecule, the EC50 is about 75-fold higher.

For `COc1cc(F)ccc1-c1cc(Cl)ncc1N(C)C(=O)c1cc(C(F)(F)F)cc(S(C)(=O)=O)c1` [Example 201, N-[6-Chloro-4-(4-fluoro-2-methoxy-phenyl)-pyridin-3-yl]-3-methanesulfonyl-N-methyl-5-trifluoromethyl-benzamide], it took 267 nM to reach a half-maximal effect (EC50).

In turn, `CN(C(=O)c1cc(C(F)(F)F)cc(C(F)(F)F)c1)c1cnccc1-c1ccccc1Cl` [Example 78, N-[4-(2-Chloro-phenyl)-pyridin-3-yl]-N-methyl-3,5-bis-trifluoromethyl-benzamide] gave an EC50 of 21 nM.

Turning to `Cc1ccccc1-c1ccncc1N(CCC#N)C(=O)c1cc(C(F)(F)F)cc(C(F)(F)F)c1` [Example 165, N-(2-Cyano-ethyl)-N-(4-o-tolyl-pyridin-3-yl)-3,5-bis-trifluoromethyl-benzamide], the response was half-maximal at 153 nM (EC50).

For `O=C(c1cc(C(F)(F)F)cc(C(F)(F)F)c1)N(c1cnccc1-c1ccccc1Cl)C1CC1` [Example 124, N-[4-(2-Chloro-phenyl)-pyridin-3-yl]-N-cyclopropyl-3,5-bis-trifluoromethyl-benzamide], a half-maximal response (EC50) required 1980 nM.

Molecule `COc1cc(F)ccc1-c1ccncc1N(C)C(=O)c1cc(C2CC2)cc(S(C)(=O)=O)c1` [Example 260, 3-Cyclopropyl-N-[4-(4-fluoro-2-methoxy-phenyl)-pyridin-3-yl]-5-methanesulfonyl-N-methyl-benzamide] showed an EC50 of 153 nM.

Consider `Cc1cc(C)cc(C(=O)N(C)c2cnccc2-c2ccccc2C)c1` [Example 96, 3,5,N-Trimethyl-N-(4-o-tolyl-pyridin-3-yl)-benzamide], for which the EC50 is 127 nM.

As for `CN(C(=O)c1cc(C(C)(C)O)cc(C(F)(F)F)c1)c1cnccc1-c1ccccc1Cl` [Example 77, N-[4-(2-Chloro-phenyl)-pyridin-3-yl]-3-(1-hydroxy-1-methyl-ethyl)-N-methyl-5-trifluoromethyl-benzamide], a half-maximal response (EC50) required 715 nM.

The molecule `Cc1ccccc1-c1ccncc1N(C)C(=O)c1cc(N2CCOCC2)cc(C(F)(F)F)c1` [Example 152, N-Methyl-3-morpholin-4-yl-N-(4-o-tolyl-pyridin-3-yl)-5-trifluoromethyl-benzamide] gave an EC50 of 558 nM.

`Cc1ccccc1-c1ccncc1N(C)C(=O)c1cc(C(F)(F)F)cc(C(F)(F)F)n1` [Example 190, 4,6-Bis-trifluoromethyl-pyridine-2-carboxylic acid methyl-(4-o-tolyl-pyridin-3-yl)-amide] yielded an EC50 of 89 nM.

Regarding `CN(C(=O)c1cc(C(F)(F)F)cc(C(F)(F)F)c1)c1cnccc1-c1ccc(F)cc1F` [Example 37, N-[4-(2,4-Difluoro-phenyl)-pyridin-3-yl]-N-methyl-3,5-bis-trifluoromethyl-benzamide], the EC50 amounted to 40 nM.

Take `COc1ncc(F)cc1-c1ccncc1N(C)C(=O)c1cc(C(F)(F)F)cc(C(F)(F)F)c1` [Example 44, N-(5-Fluoro-2-methoxy-[3,4′]bipyridinyl-3′-yl)-N-methyl-3,5-bis-trifluoromethyl-benzamide]: the EC50 amounted to 30 nM.

`Cc1ccccc1-c1cc(Cl)ncc1N(C)C(=O)c1cc(Cl)cc(Cl)c1` [Example 13, 3,5-Dichloro-N-(6-chloro-4-o-tolyl-pyridin-3-yl)-N-methyl-benzamide] registered an EC50 of 580 nM.

`CN(C(=O)c1cc(C(F)(F)F)cc(C(F)(F)F)c1)c1cnccc1-c1ccccc1C#N` [Example 36, N-[4-(2-Cyano-phenyl)-pyridin-3-yl]-N-methyl-3,5-bis-trifluoromethyl-benzamide] gave an EC50 of 362 nM.

Turning to `COc1cc(F)c(F)cc1-c1ccncc1N(CC(F)(F)F)C(=O)c1cc(C(F)(F)F)nc(C(F)(F)F)c1` [Example 146, N-[4-(4,5-Difluoro-2-methoxy-phenyl)-pyridin-3-yl]-N-(2,2,2-trifluoro-ethyl)-2,6-bis-trifluoromethyl-isonicotinamide], the EC50 turned out to be 69 nM.

`Cc1ccccc1-c1ccncc1N(C)C(=O)c1cc(C#N)cc(C(F)(F)F)c1` [Example 149, 3-Cyano-N-methyl-N-(4-o-tolyl-pyridin-3-yl)-5-trifluoromethyl-benzamide] came in with an EC50 of 242 nM. This EC50 lies about 3.5-fold higher than the previous one.

As for `COc1cc(F)ccc1-c1ccncc1N(C)C(=O)c1cc(C(F)(F)F)nc(S(C)(=O)=O)c1` [Example 221, N-[4-(4-Fluoro-2-methoxy-phenyl)-pyridin-3-yl]-2-methanesulfonyl-N-methyl-6-trifluoro-methyl-isonicotinamide], the response was half-maximal at 59 nM (EC50).

`Cc1cc(F)ccc1-c1cc(Cl)ncc1N(C)C(=O)c1cc(C(F)(F)F)cc(C(F)(F)F)c1` [Example 72, N-[6-Chloro-4-(4-fluoro-2-methyl-phenyl)-pyridin-3-yl]-N-methyl-3,5-bis-trifluoromethyl-benzamide]: a half-maximal response (EC50) required 593 nM.

`Cc1cc(-c2ccccc2OCC2COC2)c(N(C)C(=O)c2cc(C(F)(F)F)cc(S(C)(=O)=O)c2)cn1` [Example 321, 3-Methanesulfonyl-N-methyl-N-{6-methyl-4-[2-(oxetan-3-ylmethoxy)-phenyl]-pyridin-3-yl}-5-trifluoromethyl-benzamide]: the EC50 is 1880 nM.

For the molecule `CS(=O)(=O)c1cc(C(=O)N(CC#N)c2cnccc2-c2ccccc2Cl)cc(C(F)(F)F)c1` [Example 286, N-[4-(2-Chloro-phenyl)-pyridin-3-yl]-N-cyanomethyl-3-methanesulfonyl-5-trifluoromethyl-benzamide], the midpoint of the response, the EC50, lay at 379 nM. Against the preceding molecule, the EC50 is about 5-fold lower.

Turning to `COc1ncccc1-c1ccncc1N(CC(F)(F)F)C(=O)c1cc(C(F)(F)F)cc(S(=O)(=O)N(C)C)c1` [Example 170, 3-Dimethylsulfamoyl-N-(2-methoxy-[3,4′]bipyridinyl-3′-yl)-N-(2,2,2-trifluoro-ethyl)-5-trifluoromethyl-benzamide], the EC50 stood at 118 nM.

For the molecule `COc1cc(F)ccc1-c1ccncc1N(CCS(C)(=O)=O)C(=O)c1cc(C(F)(F)F)cc(S(C)(=O)=O)c1` [Example 306, N-[4-(4-Fluoro-2-methoxy-phenyl)-pyridin-3-yl]-3-methanesulfonyl-N-(2-methanesulfonyl-ethyl)-5-trifluoromethyl-benzamide], a half-maximal response (EC50) required 190 nM.
